Experimental findings from patent publication US5824700A, “Ortho-quinone derivatives novel synthesis therefor and their use in the inhibition of neoplastic cell growth” (Wisconsin Alumni Research Foundation, priority 1996, dated 1998) are described below.

Where two headings read alike, the source gives them in different places.

One assay concerns A549. Nature of the assay: Colony formation / cell survival assay, A549 lung cancer cells. It counts as cell-based. Particulars: Homo sapiens, A549, 4 h; for IC50: A549, 4 h exposure, read-out: ED50 (the source's name). As to the method:
(§1) The control flasks are treated with DMSO only. […] The remaining flasks are left untouched.
(§2) The cells are monitored for colony formation. […] The plating efficiency for each dish is then calculated.
The compounds tested were β-lapachone, 3-hydroxy-β-lapachone, 3,3-DINOR-dunnione (designated "Drug A" in the figures), 3-NOR-dunnione (designated "Drug B" in the figures) and dunnione itself (designated "Drug C" in the figures). A legend for the figures is provided below. The cell lines were cultured and the compounds evaluated according to the standard protocol described above.

Assay [1] relates to human prostate cancer cell line PC-3. The assay can be described thus: IC50 determination (DNA amount and anchorage-dependent colony formation), prostate cancer PC-3. Format: cell-based. Particulars: PC-3, 24 hours exposure. As to the method:
(§3) Table 15 lists the IC50 determinations of Drugs B, C, and D against the human prostate cancer cell line PC-3 and the human breast cancer cell line MCF7. IC50 calculations for each cell line were determined by DNA amount and anchorage-dependent colony formation (CF) as described elsewhere. (See Planchon et al. Cancer Res. 55, 3706 (1995), incorporated herein by reference.) In short, IC50 calculations for each cell line were determined by DNA amount and anchorage-dependent colony formation (CF) assays. For the CF assay, cells were seeded at 500 viable cells/well in 6-well plates and incubated overnight, then treated with equal volumes of media containing β-lapachone at final concentrations ranging from 0.005 to 50 μM in half-log increments (controls were treated with 0.25% DMSO, equivalent to the highest dose of β-lapachone used) for 4 hours or for continuous 12 hour exposures. Plates (3 wells/condition) were stained with crystal violet, and colonies of >50 normal-appearing cells were enumerated. IC50 values for various cells were calculated using drug doses with numbers of colonies surrounding 50% of control. For DNA assays, plates were harvested for IC50 determinations 8 days after treatment using a CytoFluor 2350 fluorescence measurement system (Millipore). Six-well samplings were included in the calculation of DNA fluor units for each dose. A graph of β-lapachone dose versus percentage control DNA in fluor units was used to calculate each IC50. The cells were exposed for 24 hours to the tricyclic naphthoquinones. All experiments were repeated at least twice, each in duplicate. PC-3 is an androgen-independent prostate cancer cell line.

The test system of assay [2] is human breast cancer cell line MCF7. Nature of the assay: IC50 determination (DNA amount and anchorage-dependent colony formation), breast cancer MCF7. It counts as cell-based. Particulars: MCF7, 24 hours exposure. As to the method: as §3
A further assay deals with MCF7. The assay can be described thus: Colony formation / cell survival assay, MCF7 breast cancer cells. To be noted: Homo sapiens, MCF7, 4 h.
Another assay relates to HT29. The assay can be described thus: Colony formation / cell survival assay, HT29 colon cancer cells. It counts as cell-based, human. To be noted: for effect on ability of HT29 cells to reproduce / IC50: FIG. 1; for effect on ability of HT29 cells to reproduce: β-lapachone at approximately 10 μM; for IC50: HT-29, HT29, 4 h exposure, read-out: ED50 (the source's name). As to the method:
as §1, §2
(§4) The cell lines HT29 and BE are both human colon cancer cell lines which are used to test the effectiveness of a given agent against cancer cell growth and proliferation. […] The HT29 and BE cell cultures were prepared and tested according to the protocol given above.

A further assay relates to BE. Nature of the assay: Colony formation / cell survival assay, BE colon cancer cells. Format: cell-based, human. Particulars: for effect on ability of BE cells to reproduce / IC50: FIG. 2; for effect on ability of BE cells to reproduce: β-lapachone at approximately 10 μM; for viability at 2 µM / viability at 10 µM / viability at 20 µM / viability at 100 µM / IC50: Homo sapiens; for viability at 2 µM / viability at 10 µM / viability at 20 µM / viability at 100 µM: 4 h, read-out: Fraction of Cell Survival; for IC50: BE, 4 h exposure, read-out: ED50 (the source's name). As to the method: as §1, §2, §4

Another assay has as its system Topoisomerase II. The assay can be described thus: Topoisomerase II-mediated DNA cleavage (electrophoresis). Format: biochemical, mammalian. Particulars: gels of FIGS. 9A and 9B. As to the method: Analogous experiments to assay the ability of several of the compounds described herein to induce Topoisomerase II (Topo II)-mediated DNA cleavage were also performed. The results of one such experiment are depicted in the electrophoretegram of FIGS. 9A and 9B. Here, DNA was incubated in the presence of Topo II and several different compounds described herein.
A legend for the compounds which were tested in FIGS. 9A and 9B is as follows: [drawing 25] Lane 1: R=H (β-lapachone) Lane 2: R=OH
In the far left-hand lane of […], DNA alone is shown. Moving to the right, the next lane contains DNA and Topo II (mammalian). Lanes 1-9 of FIGS. 9A and 9B contain a series of concentrations of drugs (see Legend, above) in the presence of DNA and Topo II. Each set of lanes for each drug spans 3 orders of magnitude in concentration (0.1, 1, 10, and 100 μM). […] However, Lanes 1-9, which contain DNA, Topo II, and a drug according to the present invention, show extensive DNA cleavage.

Where [3] appears, read: Homo sapiens, HT-29, 4 h, read-out: Fraction of Cell Survival.
[4] abbreviates: read-out: Fraction of Cell Survival.
[5] abbreviates: read-out: ED50, MCF7, 4 h exposure, FIG. 6.
[6] abbreviates: read-out: Fraction of Cell Survival, A549, FIG. 4, 1 μM, 4 h.
Setting [7] is: read-out: Fraction of Cell Survival, A549, FIG. 4, 5 μM, 4 h.
Where [8] appears, read: read-out: Fraction of Cell Survival, A549, FIG. 4, 10 μM, 4 h.
Where [9] appears, read: read-out: Fraction of Cell Survival, A549, FIG. 4, 50 μM, 4 h.
Setting [10] is: read-out: ED50, MCF7, 4 h exposure, FIG. 7.
[11] abbreviates: read-out: Fraction of Cell Survival, MCF7, FIG. 7, 1 μM, 4 h.
Setting [12] is: read-out: Fraction of Cell Survival, MCF7, FIG. 7, 5 μM, 4 h.
[13] abbreviates: read-out: Fraction of Cell Survival, MCF7, FIG. 7, 10 μM, 4 h.
Where [14] appears, read: read-out: Fraction of Cell Survival, MCF7, FIG. 7, 50 μM, 4 h.

In the case of `CC1OC2=C(C(=O)C(=O)c3ccccc32)C1C` (stereo not shown) [Drug B, 2,3-dimethyl-2,3,4,5-dihydro-naphtho (2,3-b)dihydrofuran-6,7-dione], the IC50 was determined as 5.6 µM in the assay with A549 (FIG. 5); 0.7 µM in assay [1]; 0.5 µM in assay [2]; 1.4 µM in the assay on MCF7 (read-out: ED50, MCF7, 4 h exposure, FIG. 8). Further, the viability at 1 µM in the assay with A549 (read-out: Fraction of Cell Survival, A549, FIG. 5, 1 μM, 4 h) was found to be 89.7%; in the assay on MCF7 (read-out: Fraction of Cell Survival, MCF7, FIG. 8, 1 μM, 4 h) it was 8.88%. Also, the viability at 5 µM in the assay with A549 (read-out: Fraction of Cell Survival, A549, FIG. 5, 5 μM, 4 h) was determined as 81.9%; with MCF7 (read-out: Fraction of Cell Survival, MCF7, FIG. 8, 5 μM, 4 h), 0.32%. The viability at 10 µM is 0.24% in the assay with A549 (read-out: Fraction of Cell Survival, A549, FIG. 5, 10 μM, 4 h) and 0.16% in the assay with MCF7 (read-out: Fraction of Cell Survival, MCF7, FIG. 8, 10 μM, 4 h). Besides, the viability at 50 µM came out at 0% with A549 (read-out: Fraction of Cell Survival, A549, FIG. 5, 50 μM, 4 h) and 1.54% in the assay with MCF7 (read-out: Fraction of Cell Survival, MCF7, FIG. 8, 50 μM, 4 h).

Consider `CC1(C)OC2=C(CC1O)C(=O)C(=O)c1ccccc12` (stereo not drawn) [3-hydroxy-β-lapachone], for which the “effect on ability of HT29 cells to reproduce” value in the assay with HT29 is on record as “significantly limits the reproductive ability of these cancer cell lines”. In addition, in the assay on HT29 (setting [3]), the viability at 2 µM was 152%, the viability at 10 µM is 119%, the viability at 20 µM came out at 2.32% and the viability at 100 µM is 0%. Further, the IC50 in the assay on HT29 (Homo sapiens) stood at 15.4 µM. In the assay on BE, the “effect on ability of BE cells to reproduce” value is given as “significantly limits the reproductive ability of these cancer cell lines”, the viability at 2 µM stood at 92.9%, the viability at 10 µM worked out at 39.2% and the viability at 20 µM worked out at 1.02%. In addition, in the assay with BE, the viability at 100 µM was determined as 0% and the IC50 turned out to be 0.6 µM. Also, in the assay with A549 (FIG. 3), the IC50 amounted to 18 µM. Also, in the assay on A549 (setting [4]), the viability at 1 µM was found to be 304%, the viability at 5 µM was 239%, the viability at 10 µM was determined as 153% and the viability at 50 µM was 0%. For the same compound, the IC50 in the assay on MCF7 (setting [5]) worked out at 7.7 µM. In the assay on MCF7 (setting [4]), the viability at 1 µM came out at 106%, the viability at 5 µM was 68%, the viability at 10 µM is 0% and the viability at 50 µM is 0.32%.

As to `CC1CC2=C(O1)c1ccccc1C(=O)C2=O` (stereo not shown) [Drug A], the figures for the IC50 in the assay with A549 (FIG. 4) and in the assay on MCF7 (setting [10]) were 6 µM and 1.6 µM, respectively. Further, the viability at 1 µM with A549 (setting [6]) was found to be 111%; in the assay on MCF7 (setting [11]), 85.4%. In addition, the viability at 5 µM amounted to 121% in the assay on A549 (setting [7]) and 0.36% in the assay with MCF7 (setting [12]). Further, the results for the viability at 10 µM with A549 (setting [8]) and in the assay on MCF7 (setting [13]) were 1.72% and 0.18%, respectively. Further, the viability at 50 µM in the assay with A549 (setting [9]) was found to be 0.23%; in the assay on MCF7 (setting [14]), 0.18%.

For the compound `Cc1cc2c(o1)-c1ccccc1C(=O)C2=O` [Drug D], the values for the IC50 in assay [1] and in assay [2] were 0.9 µM and 0.7 µM, respectively.

With `CC1(C)CCC2=C(O1)c1ccccc1C(=O)C2=O` [β-lapachone, 7,8-dihydro-2,2-dimethyl-2H-naphtho(2,3-b)dihydropyran-7,8-dione, reference compound], in the assay with HT29, the “effect on ability of HT29 cells to reproduce” value was “significantly impacts upon the ability of the HT29 and BE cells to reproduce”. In addition, the viability at 1 µM is 96.7% in the assay on HT29 (setting [3]); 265% with A549 (read-out: Fraction of Cell Survival, A549, FIG. 3, 1 μM, 4 h); 85.5% in the assay with A549 (setting [6]); 150% in the assay with MCF7 (read-out: Fraction of Cell Survival, MCF7, FIG. 6, 1 μM, 4 h); 92% in the assay with MCF7 (setting [11]). For the same compound, the viability at 5 µM was 49% in the assay on HT29 (setting [3]); 158% in the assay on A549 (read-out: Fraction of Cell Survival, A549, FIG. 3, 5 μM, 4 h); 89.7% in the assay with A549 (setting [7]); 0% in the assay with MCF7 (read-out: Fraction of Cell Survival, MCF7, FIG. 6, 5 μM, 4 h); 0.36% in the assay on MCF7 (setting [12]). The viability at 10 µM in the assay with HT29 (setting [3]) worked out at 0%; in the assay with BE it was 15.8%; with A549 (read-out: Fraction of Cell Survival, A549, FIG. 3, 10 μM, 4 h), 0%; in the assay on A549 (setting [8]) it was 0.69%; in the assay on MCF7 (read-out: Fraction of Cell Survival, MCF7, FIG. 6, 10 μM, 4 h), 0%; in the assay on MCF7 (setting [13]), 0.18%. Also, the viability at 50 µM came to 0% with HT29 (setting [3]); 17.7% in the assay on A549 (read-out: Fraction of Cell Survival, A549, FIG. 3, 50 μM, 4 h); 0% in the assay with A549 (setting [9]); 0.32% with MCF7 (read-out: Fraction of Cell Survival, MCF7, FIG. 6, 50 μM, 4 h); 0.09% in the assay with MCF7 (setting [14]). For the same compound, the IC50 stood at 4.8 µM with HT29 (Homo sapiens); 8 µM in the assay with BE; 6.1 µM in the assay on A549 (FIG. 3); 5.8 µM in the assay with A549 (FIG. 4); 9.8 µM with MCF7 (setting [5]); 1.6 µM in the assay on MCF7 (setting [10]). In the assay with BE, the “effect on ability of BE cells to reproduce” value was “significantly impacts upon the ability of the HT29 and BE cells to reproduce”. Moreover, the viability at 2 µM in the assay on BE came out at 1.17%. The viability at 20 µM with BE amounted to 4.39%. Further, in the assay on BE, the viability at 100 µM came out at 0%. The “intracellular target (in words)” value in the assay on Topoisomerase II is given as “Topo II is an intracellular target”.
